Where “and” joins values, the source holds several entries; their conditions need not be identical. Equal entries are not always repeated. Results filed as inconclusive are left out.

The assay relates to BDF1 mice, s.c. Lewis lung carcinoma, T/C %. As to the kind of experiment: NCI In Vivo Anticancer Drug Screen. Data for tumor model Lewis Lung Carcinoma (subcutaneous) in B6D2F1 (BDF1) mice. In short, it runs like this: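 Readout: survival or tumor size, expressed as treated (T) over vehicle control (C). Transplantable tumor implanted in mice; compound given to the treated group.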

Setting [1] is: endpoint: mean tumor weight, dose: 25.0 mg/kg/injection, schedule: Q01DX011 (sc), vehicle: steriod suspending solution, higher = larger tumour.
Setting [2] is: endpoint: mean tumor weight, dose: 50.0 mg/kg/injection, schedule: Q01DX011 (sc), vehicle: steriod suspending solution, higher = larger tumour.
Setting [3] is: endpoint: mean tumor weight, dose: 100.0 mg/kg/injection, schedule: Q01DX011 (sc), vehicle: steriod suspending solution, higher = larger tumour.
[4] abbreviates: endpoint: median survival time, dose: 100.0 mg/kg/injection, schedule: Q01DX009 (ip), vehicle: saline with Tween-80, higher = longer survival.
Where [5] appears, read: endpoint: median survival time, dose: 200.0 mg/kg/injection, schedule: Q01DX009 (ip), vehicle: saline with Tween-80, higher = longer survival.

Turning to `CC/C(=C(/CC)c1ccc(O)cc1)c1ccc(O)cc1`, the T/C reads like this: (endpoint: mean tumor weight, dose: 12.5 mg/kg/injection, schedule: Q01DX011 (sc), vehicle: steriod suspending solution, higher = larger tumour) 38 % of control; under setting [1], 28 % of control; under setting [2], 17 % of control; under setting [3], 21 % of control; (endpoint: median survival time, dose: 25.0 mg/kg/injection, schedule: Q01DX009 (ip), vehicle: Klucel (hydroxypropylcellulose) (HPC), higher = longer survival) 120 % of control; (endpoint: median survival time, dose: 50.0 mg/kg/injection, schedule: Q01DX009 (ip), vehicle: Klucel (hydroxypropylcellulose) (HPC), higher = longer survival) 106 % of control. The T/C (endpoint: median survival time, dose: 100.0 mg/kg/injection, schedule: Q01DX009 (ip), vehicle: Klucel (hydroxypropylcellulose) (HPC), higher = longer survival) was 113 % of control and the T/C (endpoint: median survival time, dose: 200.0 mg/kg/injection, schedule: Q01DX009 (ip), vehicle: Klucel (hydroxypropylcellulose) (HPC), higher = longer survival) was 124 % of control.
As to `CC(=O)CC(=O)Nc1ccc(Cl)cc1`, the T/C is, setting by setting: (endpoint: mean tumor weight, dose: 111.0 mg/kg/injection, schedule: Q01DX011 (ip), vehicle: other, higher = larger tumour) 151 % of control; (endpoint: mean tumor weight, dose: 166.0 mg/kg/injection, schedule: Q01DX011 (ip), vehicle: other, higher = larger tumour) 156 % of control; (endpoint: mean tumor weight, dose: 250.0 mg/kg/injection, schedule: Q01DX011 (ip), vehicle: other, higher = larger tumour) 121 % of control; (endpoint: mean tumor weight, dose: 500.0 mg/kg/injection, schedule: Q01DX011 (ip), vehicle: other, higher = larger tumour) 64 % of control.
On to `IP(c1ccccc1)(c1ccccc1)(c1ccccc1)N1C2CCCCC21` (stereo not drawn), for which the T/C is, setting by setting: (endpoint: median survival time, dose: 0.3 mg/kg/injection, schedule: Q01DX009 (ip), vehicle: Klucel (hydroxypropylcellulose) (HPC), higher = longer survival) 94 % of control; (endpoint: median survival time, dose: 0.6 mg/kg/injection, schedule: Q01DX009 (ip), vehicle: Klucel (hydroxypropylcellulose) (HPC), higher = longer survival) 103 % of control; (endpoint: median survival time, dose: 38.0 micrograms/kg/injection, schedule: Q01DX009 (ip), vehicle: Klucel (hydroxypropylcellulose) (HPC), higher = longer survival) 94 % of control; (endpoint: median survival time, dose: 75.0 micrograms/kg/injection, schedule: Q01DX009 (ip), vehicle: Klucel (hydroxypropylcellulose) (HPC), higher = longer survival) 91 % of control; (endpoint: median survival time, dose: 150.0 micrograms/kg/injection, schedule: Q01DX009 (ip), vehicle: Klucel (hydroxypropylcellulose) (HPC), higher = longer survival) 104 % of control; (endpoint: median survival time, dose: 300.0 micrograms/kg/injection, schedule: Q01DX009 (ip), vehicle: Klucel (hydroxypropylcellulose) (HPC), higher = longer survival) 91 % of control.
Take `CO[C@H]1/C=C/O[C@@]2(C)Oc3c(C)c(O)c4c(O)c(c(/C=N/N5C(C)CN(Cc6ccccc6)CC5C)c(O)c4c3C2=O)NC(=O)/C(C)=C\C=C\[C@H](C)[C@H](O)[C@@H](C)[C@@H](O)[C@@H](C)[C@H](OC(C)=O)[C@@H]1C` (stereo partly drawn): the T/C is 112 % of control (endpoint: mean tumor weight, dose: 50.0 mg/kg/injection, schedule: Q01DX009 (ip), vehicle: saline with Tween-80, higher = larger tumour); 93 % of control (endpoint: mean tumor weight, dose: 100.0 mg/kg/injection, schedule: Q01DX009 (ip), vehicle: saline with Tween-80, higher = larger tumour); 65 % of control (endpoint: mean tumor weight, dose: 200.0 mg/kg/injection, schedule: Q01DX009 (ip), vehicle: saline with Tween-80, higher = larger tumour); 47 % of control (endpoint: mean tumor weight, dose: 400.0 mg/kg/injection, schedule: Q01DX009 (ip), vehicle: saline with Tween-80, higher = larger tumour); 95 % of control (endpoint: median survival time, dose: 1.6 mg/kg/injection, schedule: Q02DX Z (oral), vehicle: Klucel (hydroxypropylcellulose) (HPC), higher = longer survival); 91 % of control (endpoint: median survival time, dose: 3.12 mg/kg/injection, schedule: Q02DX Z (oral), vehicle: Klucel (hydroxypropylcellulose) (HPC), higher = longer survival). Moreover, the T/C (endpoint: median survival time, dose: 12.5 mg/kg/injection, schedule: Q02DX Z (oral), vehicle: Klucel (hydroxypropylcellulose) (HPC), higher = longer survival) was 87 % of control; the T/C (endpoint: median survival time, dose: 25.0 mg/kg/injection, schedule: Q02DX Z (oral), vehicle: Klucel (hydroxypropylcellulose) (HPC), higher = longer survival) was 91 % of control; the T/C (endpoint: median survival time, dose: 50.0 mg/kg/injection, schedule: Q02DX Z (oral), vehicle: Klucel (hydroxypropylcellulose) (HPC), higher = longer survival) was 95 % of control; the T/C under setting [4] was 112 % of control; the T/C (endpoint: median survival time, dose: 100.0 mg/kg/injection, schedule: Q02DX Z (oral), vehicle: Klucel (hydroxypropylcellulose) (HPC), higher = longer survival) is 94 % of control; the T/C under setting [5] was 100 % of control. The T/C (endpoint: median survival time, dose: 200.0 mg/kg/injection, schedule: Q02DX Z (oral), vehicle: Klucel (hydroxypropylcellulose) (HPC), higher = longer survival) was 102 % of control.
With `C[C@]12CCC(=O)C=C1CC[C@@H]1[C@@H]2[C@@H](O)C[C@@]2(C)[C@H]1CC[C@]2(O)C(=O)COC(=O)c1ccc([N+](=O)[O-])cc1Cl`, the T/C was 65 % of control under setting [1]; 71 % of control under setting [2]; 47 % of control under setting [3]; 53 % of control (endpoint: mean tumor weight, dose: 200.0 mg/kg/injection, schedule: Q01DX011 (sc), vehicle: steriod suspending solution, higher = larger tumour); 18 % of control (endpoint: mean tumor weight, dose: 250.0 mg/kg/injection, schedule: Q01DX011 (sc), vehicle: steriod suspending solution, higher = larger tumour); 25 % of control (endpoint: mean tumor weight, dose: 500.0 mg/kg/injection, schedule: Q01DX011 (sc), vehicle: steriod suspending solution, higher = larger tumour). In addition, the T/C (endpoint: mean tumor weight, dose: 750.0 mg/kg/injection, schedule: Q01DX011 (sc), vehicle: steriod suspending solution, higher = larger tumour) was 13 % of control.
Regarding `CNC=O`, the T/C was 67 % of control and 69 % of control (endpoint: mean tumor weight, dose: 250.0 mg/kg/injection, schedule: Q01DX011 (ip), vehicle: saline, higher = larger tumour); 10 % of control and 12 % of control (endpoint: mean tumor weight, dose: 500.0 mg/kg/injection, schedule: Q01DX011 (ip), vehicle: saline, higher = larger tumour).
Take `CN(C)N=Nc1n[nH]nc1C(N)=O`: the T/C (endpoint: median tumor weight (est.), dose: 134.5 mg/kg/injection, schedule: Q01DX009 (ip), vehicle: saline, higher = larger tumour) was 102 % of control; the T/C (endpoint: median tumor weight (est.), dose: 269.0 mg/kg/injection, schedule: Q01DX009 (ip), vehicle: saline, higher = larger tumour) was 81 % of control; the T/C (endpoint: median tumor weight (est.), dose: 538.0 mg/kg/injection, schedule: Q01DX009 (ip), vehicle: saline, higher = larger tumour) was 79 % of control.
Turning to `CCN(CC)CC(C)Nc1ccc(C)c2sc3ccccc3c(=O)c12` (stereo not drawn), the T/C is 104 % of control (endpoint: mean tumor weight, dose: 10.0 mg/kg/injection, schedule: Q01DX011 (ip), vehicle: other, higher = larger tumour); 68 % of control (endpoint: mean tumor weight, dose: 40.0 mg/kg/injection, schedule: Q01DX011 (ip), vehicle: other, higher = larger tumour); 30 % of control (endpoint: mean tumor weight, dose: 160.0 mg/kg/injection, schedule: Q01DX011 (ip), vehicle: other, higher = larger tumour).
Turning to `C=C1C(=O)O[C@H]2[C@H]1[C@H](OC(=O)/C(C)=C\C)CC(=C)[C@@H]1[C@H](O)[C@H]3O[C@@]3(C)[C@@]12O`, the T/C (endpoint: mean tumor weight, dose: 7.5 mg/kg/injection, schedule: Q01DX011 (ip), vehicle: saline, higher = larger tumour) was 63 % of control; the T/C (endpoint: mean tumor weight, dose: 15.0 mg/kg/injection, schedule: Q01DX011 (ip), vehicle: saline, higher = larger tumour) was 70 % of control; the T/C (endpoint: mean tumor weight, dose: 30.0 mg/kg/injection, schedule: Q01DX011 (ip), vehicle: saline, higher = larger tumour) is 63 % of control.
With `CC[C@H]1CN2CCc3cc(OC)c(OC)cc3[C@@H]2C[C@@H]1C[C@H]1NCCc2c1[nH]c1ccc(O)cc21`, the T/C by setting is: (endpoint: median survival time, dose: 0.25 mg/kg/injection, schedule: Q01DX009 (ip), vehicle: Klucel (hydroxypropylcellulose) (HPC), higher = longer survival) 103 % of control; (endpoint: median survival time, dose: 0.5 mg/kg/injection, schedule: Q01DX009 (ip), vehicle: Klucel (hydroxypropylcellulose) (HPC), higher = longer survival) 93 % of control; (endpoint: median survival time, dose: 1.0 mg/kg/injection, schedule: Q01DX009 (ip), vehicle: Klucel (hydroxypropylcellulose) (HPC), higher = longer survival) 90 % of control.
For the compound `CCCNC(=NC)c1ccc(NC(=O)c2ccc(C(=O)Nc3ccc(C(=NC)NCCC)cc3)cc2)cc1`, the T/C is, setting by setting: (endpoint: mean tumor weight, dose: 2.5 mg/kg/injection, schedule: Q01DX011 (ip), vehicle: other, higher = larger tumour) 124 % of control; (endpoint: mean tumor weight, dose: 5.0 mg/kg/injection, schedule: Q01DX011 (ip), vehicle: other, higher = larger tumour) 56 % of control.
`COc1ccc(-c2ccc(OC)c(OC)c2OC)c(N)c1`: the T/C reads like this: (endpoint: mean tumor weight, dose: 375.0 mg/kg/injection, schedule: Q01DX011 (ip), vehicle: carboxymethylcellulose (CMC), higher = larger tumour) 58 % of control; (endpoint: mean tumor weight, dose: 500.0 mg/kg/injection, schedule: Q01DX011 (ip), vehicle: carboxymethylcellulose (CMC), higher = larger tumour) 89 % of control; (endpoint: mean tumor weight, dose: 625.0 mg/kg/injection, schedule: Q01DX011 (ip), vehicle: carboxymethylcellulose (CMC), higher = larger tumour) 74 % of control; (endpoint: mean tumor weight, dose: 750.0 mg/kg/injection, schedule: Q01DX011 (ip), vehicle: carboxymethylcellulose (CMC), higher = larger tumour) 56 % of control; (endpoint: median survival time, dose: 25.0 mg/kg/injection, schedule: Q01DX009 (ip), vehicle: saline with Tween-80, higher = longer survival) 101 % of control; (endpoint: median survival time, dose: 50.0 mg/kg/injection, schedule: Q01DX009 (ip), vehicle: saline with Tween-80, higher = longer survival) 107 % of control. Also, the T/C runs as follows: under setting [4], 108 % of control; under setting [5], 106 % of control.
Turning to `C[n+]1cccc(C(=O)O)c1`, the T/C was 116 % of control (endpoint: mean tumor weight, dose: 50.0 mg/kg/injection, schedule: Q01DX011 (ip), vehicle: saline, higher = larger tumour); 75 % of control (endpoint: mean tumor weight, dose: 100.0 mg/kg/injection, schedule: Q01DX011 (ip), vehicle: saline, higher = larger tumour); 60 % of control (endpoint: mean tumor weight, dose: 200.0 mg/kg/injection, schedule: Q01DX011 (ip), vehicle: saline, higher = larger tumour).
Regarding `O=C1c2ccccc2CCc2ccccc21`, the T/C (endpoint: mean tumor weight, dose: 133.0 mg/kg/injection, schedule: Q01DX011 (ip), vehicle: other, higher = larger tumour) is 91 % of control; the T/C (endpoint: mean tumor weight, dose: 200.0 mg/kg/injection, schedule: Q01DX011 (ip), vehicle: other, higher = larger tumour) is 173 % of control; the T/C (endpoint: mean tumor weight, dose: 450.0 mg/kg/injection, schedule: Q01DX011 (ip), vehicle: other, higher = larger tumour) is 74 % of control.

For the origin of these results see PubChem BioAssay AID270 (DTP/NCI, 2004).
